Measured values from patent US10092591B2, “Methods and compositions for the treatment of ischemic injury to tissue using therapeutic hypothermia” (University of Alaska Fairbanks, priority 2014, dated 2018).
Like-named read-outs stand apart in the source and are kept apart here.

Legend:
Male Sprague-Dawley rats [1] = experiment: Continuous CHA delivery through iPRECIO pumps at Ta 16° C. or 25° C., with 8-SPT injection; assay type: in vivo, rat; details: for mean minimum Tb: continuous CHA via SQ minipump, equivalent to 1 mg/kg every 4 hr, 24 hr
Description: To determine if the effects of CHA on heart rate were due to direct effects of CHA on the heart or to the effects of tissue temperature, programmable minipumps were employed to deliver CHA continuously for 24 hr at an ambient temperature of 25° C. and 16° C. […] For these experiments a separate group of rats was instrumented with programmable iPRECIO® pumps (DSI, St. Paul, Minn.). CHA was dissolved in 25% (w/v) hydroxypropyl-β-cyclodextrin (CD) in sterile water and 8-SPT was dissolved in 0.9% saline. Pumps delivered the same mass of CHA as in the first experiment (6 mg/kg over a 24 hr period), however, in this case CHA was delivered at a constant rate of 30 μL/hr. Heart rate (HR) and hemoglobin saturation (sO2) was monitored using a pulse oximeter every 10 min for 1 hr following a single injection of 8-SPT (25 mg/kg, i.p.) or vehicle as indicated. As before, animals in both treatment and control groups were moved to an ambient temperature (Ta) of 16° C. or 25° C. the day before the experiment and remained at this Ta until return to a Ta of 20° C., 4 hr after the end of drug delivery. Drug and vehicle treatments were administered to all animals using a balanced cross-over design. At least 1 week separated CHA and vehicle (CD) treatment and 1 hr separated 8-SPT and vehicle (saline) injections. A pulse oximeter (Vet/Ox […], Model 72042A3 Sensor Devices Inc., Lancaster, Pa.) was used to monitor heart rate (HR) and sO2. Pulse oximetry was acquired via a sensor on the paw.

[2] = rabbit; Liu G S et al., 1991; cited from earlier work
Male Sprague-Dawley rats [3] = experiment: Sustained hypothermia in conscious rats, drug delivery via sequential i.p. injections; assay type: in vivo
[4] = test system: rats subjected to 8 min of asphyxial cardiac arrest; experiment: Therapeutic hypothermia in rats subjected to 8 min asphyxial cardiac arrest; assay type: in vivo, rat
Description: Rats aged 68-75 days were subjected to 8 min of asphyxial cardiac arrest and animals that were resuscitated within 120 sec and met additional inclusion criteria 60 min after ROSC (Table 1) were randomly allocated to a therapeutic hypothermia (TH) or a normothermic control (NC) group using a computer-generated randomization schedule without knowledge of outcome. Treatment commenced 70 min after restoration of spontaneous circulation (ROSC).
Animals assigned to the TH group were moved to 16° C. and CHA and 8-SPT delivered as described above for Drug delivery via sequential IP injections. Animals assigned to the NC group were moved to a neonatal incubator set to 29° C. and vehicles (PB and saline) delivered as described above for the control group. At the end of 24 hr the rats were moved to and housed an ambient temperature of 20° C. for 7 days until they were euthanized for tissue collection. Body temperature was monitored prior to each injection throughout treatment and daily thereafter using sc IPTT-300 transponders (BioMedic Data Systems, Inc. Seaford, Del.).
ACA was induced as described by Dave et al., 2006. Animals were anesthetized with 5% isofluorane and a 30:70 mixture of O2 and N2O followed by endotracheal intubation and mechanical ventilation. The femoral vein and artery were cannulated for continuous blood pressure monitoring and blood gas analysis. ECG leads were attached to the limbs. Physiological variables, including but not limited to PaCO2, PaO2, and pH were maintained within normal limits by adjusting respiratory rate and volume. MABP and ECG were monitored continuously. Temporalis muscle and rectal temperatures were maintained at 36.5-37.5° C. by heating lamps and Omega (Stamford, Conn.) T-CSC32 temperature controllers. To induce cardiac arrest, vecuronium (1 mg/kg) was injected I.V. and apnea was induced by disconnecting the ventilator from the endotracheal tube. Resuscitation was initiated by reconnecting the ventilator, administering epinephrine (0.01 mg/kg, I.V.) and sodium bicarbonate (1 mg/kg, I.V.) mechanically ventilating with 100% O2 at a rate of 80 bpm and manual chest compressions until MABP reached 50 mm Hg and was maintained by a spontaneously beating heart for more than 10 sec. After 10 min of ROSC, ventilation was decreased to 60 bpm and O2 lowered to 30%. Naïve animals were subjected to similar surgical procedures except that the ventilator was not disconnected from the endotracheal tube.
Post-operative (post-op) rats subjected to 6 min and 8 min CA and not assigned to hypothermia experiments were placed in a neonatal incubator overnight with only water provided (0.9% saline, I.P. based off […] body weight was injected at the end of surgery to prevent dehydration). After 8-16 hr, animals were fed, weighed, cleaned, and had neurological deficit scores (NDS) analyzed daily for 7 days beginning 2 hr post ROSC. Rats were fed a 50:50 mix of rodent chow and sugar mixed with water to create a soup, which was placed into small petri dishes to allow animals to self-feed. Animals that were unable to feed themselves were assisted via spoon-feeding. Spoon-feeding involved using a gavage needle and a 3 cc syringe to slowly and carefully inject the liquid soup material into the rat's mouth allowing their “swallow-reflex” to determine how much food was given.
Behavioral Neurological Deficit Scores (NDS) were taken daily for 7 days after asphyxial cardiac arrest to assess injury. The total NDS consists of five components: consciousness and respiration, cranial nerve function, motor function, sensory function, and coordination (leg/tail movement, cleaning, depth perception, and righting reflex) as previously described in Katz et al., 1995). The NDS range is a scale between 0 (normal function) to 100 (brain dead). […]

[5] = test system: arctic ground squirrel (AGS); experiment: CHA-induced torpor and hypothermic response in arctic ground squirrel; assay type: in vivo; details: CHA 0.1 mg/kg i.p.; trough vs peak in euthermic Tb,sc; p<0.05, n=6; FIG. 2B
Text: Adenosine is a neuroprotective by-product of cellular metabolism that accumulates and is released from the brain during traumatic events (Dunwiddie and Masino, 2001). Under nonpathologic conditions, adenosine functions as a bioenergetic network regulator (Boison et al., 2011), and as a neuromodulator with key roles in sleep, thermoregulation and hibernation (Drew and Jinka, 2012) via a family of G protein-coupled receptors (GPCR). Torpor onset in the arctic ground squirrel (AGS) is regulated within the CNS by A1AR signaling and depends on a seasonal change in sensitivity to agonists (Jinka et al., 2011). […] Moreover, CHA-induced torpor is similar to spontaneous torpor with regard to the magnitude and temporal profile of metabolic suppression and Tb decline. A seasonally regulated decrease in Tb during rest in euthermic (non-hibernating) AGS predicts onset of torpor and an increased hypothermic response to CHA. Thus, Tb in animals at rest is a biomarker of enhanced sensitivity to A1AR signaling (FIG. 2). This relationship between Tb and sensitivity to CHA is observed in rats as well as in AGS as disclosed herein.
Spontaneous torpor is indicated by abrupt decreases in Tb,sc below about 30° C.

[6] = test system: dietary restricted (DR) rats; experiment: Induction of hypothermia by intermittent CHA and 8-SPT in ad libitum fed and dietary restricted rats; assay type: in vivo, rat
Description: First, shivering is alleviated through stimulation of central A1AR. Second, the Tb minimum and rate of cooling following stimulation of A1AR in the CNS can be controlled through manipulation of ambient temperature without external or internal cooling. These principles were used to develop methods for inducing hypothermia in dietary restricted (DR) rats (FIG. 3B). In FIG. 3, the magnitude and rate of cooling was controlled by adjusting ambient temperature (i.e., 16° C.) and regulating sensitivity to CHA through DR (every other day feeding, see FIG. 3B). Peripheral side effects were minimized by co-administration of 8-SPT (2.5 mg/kg i.p.) 15 min prior to CHA (0.5 mg/kg, i.p.). […].

[7] = test system: arctic ground squirrel (AGS); details: CHA i.p. or into the lateral ventricle (icv), cited from earlier work
[8] = stated as approximated by the 4 hr injection interval; cited from earlier work
[9] = 8-SPT 25 mg/kg i.p. in CHA treated animals, Ta 25° C.

For `Cn1c(=O)c2[nH]c(-c3ccc(S(=O)(=O)O)cc3)nc2n(C)c1=O` [8-SPT, 8-p-sulfophenyltheophylline], the “influence on Tb” value (Male Sprague-Dawley rats [1]; 8-SPT 25 mg/kg i.p. in CHA treated animals, Ta 16° C.) was “no influence on Tb”, the heart rate (Male Sprague-Dawley rats [1]; [9]) was “small, but significant increase” and the “influence on Tb” value (Male Sprague-Dawley rats [1]; [9]) was “no influence on Tb”. The “increase in heart rate” value (Male Sprague-Dawley rats [1]; 8-SPT 25 mg/kg i.p. in animals treated with continuous CHA, Ta 16° C.) was 2 fold, the “heart rate in control animals” value (Male Sprague-Dawley rats [1]; 8-SPT in control (CD treated) animals, Ta 16° C., saline vehicle did the same) was “increased heart rate” and the “heart rate or Tb in control animals” value (Male Sprague-Dawley rats [1]; 8-SPT in control (CD treated) animals, Ta 25° C.) was “no effect on heart rate or Tb”. The “time for effects of 8-SPT to subside” value (Male Sprague-Dawley rats [1]; after 8-SPT 25 mg/kg i.p., Ta 16° C.) was no more than 60 min and the half-life [2] was 0.75 h.

For `OC[C@H]1O[C@@H](n2cnc3c(NC4CCCCC4)ncnc32)[C@H](O)[C@@H]1O` [CHA, N^6-cyclohexyladenosine], the “Tb on repeated injection” value (Male Sprague-Dawley rats [3]; CHA 1.0 mg/kg i.p. at 4 hr intervals, 6 injections, 8-SPT 15 min prior, Ta 16° C.) was “steady minimum in Tb after the fourth injection”, the “Tb decreased to” value (Male Sprague-Dawley rats [3]; CHA 1.0 mg/kg i.p., 8-SPT 25 mg/kg i.p. 15 min prior, Ta 16° C., FIG. 4A) was 33 °C and the “time to decrease of Tb to 33° C.” value (Male Sprague-Dawley rats [3]; CHA 1.0 mg/kg i.p., 8-SPT 15 min prior, Ta 16° C.) was no more than 1 h. For the same compound, the “heart rate at 24 hr” value (Male Sprague-Dawley rats [3]; CHA-treated rats, 4 hr after last 8-SPT and CHA injection, FIG. 4C) was “slight, but statistically significant bradycardia”, the “time to rewarm after moving to Ta of 20° C.” value (Male Sprague-Dawley rats [3]; after 6 injections of CHA and 8-SPT, no other means of rewarming) was no more than 3.5 h and the “adverse events after rewarming” value (Male Sprague-Dawley rats [3]; after 24 hr CHA and 8-SPT at Ta 16° C.) was “without evidence of significant adverse events”. For the same compound, the “heart rate 5.5 hr after the last CHA injection” value (Male Sprague-Dawley rats [3]; after rewarming, FIG. 4C) was “remained significantly elevated”, the “neurological deficit scores (NDS)” value (Male Sprague-Dawley rats [3]; during hypothermia, FIG. 4B) was “increased” and the sO2 (Male Sprague-Dawley rats [1]; continuous CHA at Ta 16° C. and 25° C.) was “no effect”. The heart rate (Male Sprague-Dawley rats [1]; continuous CHA at Ta 16° C. and 25° C. vs CD vehicle, p<0.01) was “decreased”, the “mean minimum Tb” value (Male Sprague-Dawley rats [1]; Ta 16° C.) was 29.3±0.3 °C and the “mean minimum Tb” value (Male Sprague-Dawley rats [1]; Ta 25° C.) was 35.6±0.12 °C. The “number of healthy neurons per mm of CA1 (mean±SEM)” value ([4]; TH group n=3, 8 days after 8 min asphyxial CA, naïve 180.8±12.3, normothermic control 47.8) was 135.5±4.6, the “survival to 8 days” value ([4]; TH group, n=3, 1 of 3 survived in normothermic control group) was 3 rats and the “individual Tb minima” value ([4]; TH group, n=3) was 29.7±0.3 °C. For the same compound, the “time to Tb of 31.0 to 31.6° C. after CHA injection” value ([4]; TH group, n=3) was no more than 3 h, the “time to rewarm without intervention after transfer to Ta of 20° C.” value ([4]; TH group, transfer 4 hr after last CHA injection) was no more than 5 h and the “time at which Tb reached a minimum after ROSC” value ([4]; cooling initiated 70 min post ROSC) was 12 h. The post-operative recovery ([4]; hypothermia group) was “recovered without need for post-op care”, the “maximal response to a low (non-torpor inducing) dose” value [5] was “greater when tested during a trough than when tested during a peak” and the “magnitude of cooling at a given dose” value ([6]; dietary restriction (every other day feeding) vs ad libitum, CHA 0.5 mg/kg with 8-SPT) was “enhanced following DR”. The “Tb in conscious rats” value ([6]; repeated co-administration: 8-SPT 2.5 mg/kg i.p. 15 min prior to CHA 0.5 mg/kg i.p., 4 hr intervals, Ta 16° C.) was “immediate decrease in Tb”, the “torpor induction in summer” value ([7]; summer) was “not in summer” and the “torpor induction in winter” value ([7]; winter) was “induces torpor”. For the same compound, the half-life [8] was roughly 4 h.
